Experimental findings from article PMC11190158, “Study on the design, synthesis, and activity of anti-tumor staple peptides targeting MDM2/MDMX” (Frontiers in Chemistry, 2024) are described below.

Data set [1] can be described thus: Circular dichroism, degree of helicity. The note with it: CD, PB pH 7.2, 10–50 mmol/L peptide, ambient temperature, 1-mm path length, 185–255 nm. It is filed as physicochemical. The protocol:
The staple peptides were soluble in PB with a pH of 7.2 at a concentration of 10–50 mmol/L. CD experiments were performed using a Jasco J-715 Spectropolarimeter at ambient temperature. A quartz cuvette with a 1-mm path length was used for the spectrum collection (wavelength, 185–255 nm; step resolution, 0.0001 mm; speed, 1.2 μm/h; accumulations, 6; and bandwidth, 0.0001 mm). We calculated the helicity of each peptide using Eq.

The test system of data set [2] is HCT116 p53^−/−. The note with it: 72 h.
In data set [3] the test system is U87 MG. The note with it: for IC50: 72 h; for concentration at which in vitro anti-tumor activity was exhibited: U87 MG tumor cells, CCK-8.
Data set [4] relates to HCT116 p53^+/+. The note with it: 72 h.
The nature of data set [5]: circular dichroism. To be noted: phosphate buffer (PB); pH 7.2; ns °C; 10-50 (printed mmol/L, probably uM). On the technique in general: Circular dichroism is widely used to follow secondary structure.
The test system of data set [6] is U251. The note with it: for IC50: 72 h; for concentration at which in vitro anti-tumor activity was exhibited: U251 tumor cells, CCK-8.
In data set [7] the test system is tumor cells. Kind of data set: Cytotoxicity / cell viability assay (CCK-8), cell line not given. The note with it: for concentration at which in vitro anti-tumor activity was exhibited: compared to linear peptide M3-1, cell line not named; for anti-proliferative / tumor suppressive activity (in words): HCT116 p53^+/+, HCT116 p53−/−, U87 and U251 cell viability experiments, versus template straight-chain peptide. Type of data set: cell-based, human. The protocol: Human colon cancer cell lines HCT116 p53^+/+, HCT116 p53^−/−, U87 MG, and U251 were maintained in McCoy’s 5A Medium supplemented with 10% heat-inactivated FCS and 1% penicillin–streptomycin at 37°C, 5% CO2, and under complete humidification conditions. The cells (3×10^3 cells/well) were inoculated in 96-well plates and treated with different concentrations of polypeptides for 72 h. The absorbance at 450 nm was then measured using the CCK-8 Kit, and the percentage of cell survival was calculated based on the ratio of the sample well to the reference well A450.

Positions of bridges follow the written chain, without caps; N, C: chain ends. Non-standard residues stand in square brackets, D forms with d. Residues, ends and D or L forms follow the SMILES beside them. R8 = C=CCCCCCC[C@@](C)(N)C(=O)O; S5 = C=CCCC[C@](C)(N)C(=O)O

In the case of `CSCC[C@H](NC(=O)[C@H](CC(C)C)NC(=O)[C@H](CCC(N)=O)NC(=O)[C@H](C)NC(=O)[C@H](Cc1c[nH]c2ccccc12)NC(=O)[C@H](Cc1ccc(O)cc1)NC(=O)[C@]1(C)CCCC=CCCC[C@](C)(NC(=O)[C@H](CCCCN)NC(C)=O)C(=O)N[C@@H]([C@@H](C)O)C(=O)N[C@@H](Cc2ccccc2)C(=O)N[C@@H](CC(C)C)C(=O)N1)C(=O)N[C@@H](CCC(N)=O)C(=O)N[C@@H](CCCCN)C(N)=O` [SM3-1] (Ac-K[S5]TFL[S5]YWAQLMQK-NH2; staple 2-6), the helicity in data set [1] amounted to 42.36%; in data set [5] it was 42.4%. Moreover, the half-maximal inhibitory concentration (IC50) turned out to be 54.8 µM in data set [2], 19 µM in data set [3], 118 µM in data set [4] and 22.6 µM in data set [6]. Also, the entries for the “concentration at which in vitro anti-tumor activity was exhibited” value (“concentration at which” for short) in data set [3], in data set [6] and in data set [7] were 25 µM, 50 µM and 25 µM, respectively.

`CSCC[C@H](NC(=O)[C@H](CC(C)C)NC(=O)[C@H](CCC(N)=O)NC(=O)[C@H](C)NC(=O)[C@H](Cc1c[nH]c2ccccc12)NC(=O)[C@]1(C)CCCC=CCCC[C@](C)(NC(=O)[C@H](CC(C)C)NC(=O)[C@H](CCCCN)NC(C)=O)C(=O)N[C@@H](Cc2ccccc2)C(=O)N[C@@H](CC(C)C)C(=O)N[C@@H](CCC(=O)O)C(=O)N1)C(=O)N[C@@H](CCC(N)=O)C(=O)N[C@@H](CCCCN)C(N)=O` [SM3-2] (Ac-KL[S5]FLE[S5]WAQLMQK-NH2; staple 3-7): the helicity in data set [1] and in data set [5] was 5.85% each time. Further, the 50% inhibitory concentration (IC50) in data set [2] was determined as 24 µM; in data set [3] it was 30.7 µM; in data set [4], 34.4 µM; in data set [6] it was 48.7 µM. The figures for the “concentration at which” value in data set [3], in data set [6] and in data set [7] were 25 µM, 50 µM and 25 µM, respectively. Also, the “anti-proliferative / tumor suppressive activity (in words)” value in data set [7] is recorded as “significantly improved”.

Take `CSCC[C@H](NC(=O)[C@H](CC(C)C)NC(=O)[C@H](CCC(N)=O)NC(=O)[C@]1(C)CCCC=CCCC[C@](C)(NC(=O)[C@H](Cc2ccccc2)NC(=O)[C@@H](NC(=O)[C@H](CC(C)C)NC(=O)[C@H](CCCCN)NC(C)=O)[C@@H](C)O)C(=O)N[C@@H](CCC(=O)O)C(=O)N[C@@H](Cc2ccc(O)cc2)C(=O)N[C@@H](Cc2c[nH]c3ccccc23)C(=O)N1)C(=O)N[C@@H](CCC(N)=O)C(=O)N[C@@H](CCCCN)C(N)=O` [SM3-3] (Ac-KLTF[S5]EYW[S5]QLMQK-NH2; staple 5-9): the helicity in data set [1] was 38.10%; in data set [5], 38.1%. Moreover, the concentration for half-maximal inhibition (IC50) came out at 25.8 µM in data set [2], 47.5 µM in data set [3], 15.6 µM in data set [4] and 93 µM in data set [6]. The “concentration at which” value in data set [3] was 50 µM; in data set [6] it was 100 µM; in data set [7] it was 25 µM.

For `CSCC[C@@H]1NC(=O)[C@H](CC(C)C)NC(=O)[C@H](CCC(N)=O)NC(=O)[C@@](C)(NC(=O)[C@H](Cc2c[nH]c3ccccc23)NC(=O)[C@H](Cc2ccc(O)cc2)NC(=O)[C@H](CCC(=O)O)NC(=O)[C@H](CC(C)C)NC(=O)[C@H](Cc2ccccc2)NC(=O)[C@@H](NC(=O)[C@H](CC(C)C)NC(=O)[C@H](CCCCN)NC(C)=O)[C@@H](C)O)CCCC=CCCC[C@@](C)(C(=O)N[C@@H](CCCCN)C(N)=O)NC1=O` [SM3-5] (Ac-KLTFLEYW[S5]QLM[S5]K-NH2; staple 9-13), the helicity in data set [1] worked out at 42.85%; in data set [5], 42.9%. In addition, the concentration for half-maximal inhibition (IC50) in data set [2] came to 27.4 µM; in data set [3], 31.2 µM; in data set [4] it was 27.3 µM; in data set [6], 35.9 µM. The “concentration at which” value in data set [3] worked out at 25 µM; in data set [6], 50 µM; in data set [7], 25 µM. For the same compound, the “anti-proliferative / tumor suppressive activity (in words)” value in data set [7] is given as “significantly improved”.

For `CC(=O)N[C@@H](CCCCN)C(=O)N[C@@H](CC(C)C)C(=O)N[C@H](C(=O)N[C@@H](Cc1ccccc1)C(=O)N[C@]1(C)CCCCCCC=CCCC[C@@](C)(C(=O)N[C@@H](CCC(N)=O)C(=O)N[C@@H](CCCCN)C(N)=O)NC(=O)[C@H](CC(C)C)NC(=O)[C@H](CCC(N)=O)NC(=O)[C@H](C)NC(=O)[C@H](Cc2c[nH]c3ccccc23)NC(=O)[C@H](Cc2ccc(O)cc2)NC(=O)[C@H](CCC(=O)O)NC1=O)[C@@H](C)O` [SM3-8] (Ac-KLTF[R8]EYWAQL[S5]QK-NH2; staple 5-12), the helicity in data set [1] amounted to 52.02%. Also, the 50% inhibitory concentration (IC50) worked out at 17.9 µM in data set [2], 45 µM in data set [3], 17.6 µM in data set [4] and 94.2 µM in data set [6]. Further, the “concentration at which” value in data set [3] came out at 50 µM; in data set [6] it was 100 µM; in data set [7], 25 µM.

In the case of Ac-KLTFLEYWAQLMQK-NH2, in data set [5], the helicity came to 0.54%.

Broadly, the IC50 is the point on the concentration scale where inhibition reaches its midpoint. The low end stands for higher potency, the high end for lower potency.
